# Test results: patent publication US12398154B2, “Azaquinazoline pan-KRas inhibitors” (Mirati Therapeutics, Inc., priority 2020, dated 2025)
# pIC50: −log10 of the molar value.
# How the values were obtained:
# pERK in A549 cells = test: Inhibition of KRas phosphorylation of ERK (Cisbio HTRF pERK assay); conditions: Homo sapiens, A549, read-out: Inhibition (HTRF IC50) of KRas-mediated Phosphorylation of ERK, A549
# KRas G12D = KRas G12D (Homo sapiens, UniProt P01116, G12D); test: biochemical;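 note: TR-FRET displacement binding assay on KRas, read after a one-hour incubation at room temperature, IC50 fitted from percent-of-control values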
# Procedure: (§2) The ability of a compound to bind to KRas was measured using a TR-FRET displacement assay. […] After a 60-minute incubation at room temperature, the reaction was measured using a BMG LABTECH CLARIO star Plus via TR-FRET. […] The POC values were fit to a 4-parameter IC50 equation and the IC50 value reported.
# pERK in H358 cells = test: Inhibition of KRas phosphorylation of ERK (Cisbio HTRF pERK assay); conditions: Homo sapiens, NCI-H358, read-out: Inhibition (HTRF IC50) of KRas-mediated Phosphorylation of ERK, H358
# Procedure: (§3) To harvest cells from flask using 0.05% Trypsin/EDTA solution. Add 10 mL of media to stop trypsinizing. Pipette the cells into a conical bottom 50 mL centrifuge tube and centrifuge 5 min×1000 rpm. • 2. Re-suspend the cell pellet in media, take a cell count, and then adjust the cell density using fresh media. • 3. Seed 6,000 cells into cell culture plate with 50 μL media. […] Incubate cell plate overnight in a 37° C., 5% CO2 incubator. • Compound titrations • 1. Use Tecan to complete the compound addition. Compounds start from 10 uM top, 3-fold dilution, and 10 doses. The final DMSO concentration is 0.8%. Dispensed 0.2 uM Trametinib as Min control. • 2. Incubate cell plate for 3 hrs in the incubator. • Detection with cisbio pERK HTRF kit • 1. […] At the end of the compound treatment, flick-off the media. • 3. Add 35 μL of lysis buffer per well using a Multidrop Combi. Then place on a plate agitator shaking at 300 rpm at 4° C. for 40 mins. • 4. Make up the HTRF antibody buffer. For each assay plate, mix 50 μL of d2-conjugate antibody with 950 μL of detection buffer. Similarly, mix 50 μL of Cryptate antibody with 950 μL of detection buffer. Then mix the two diluted antibodies together. • 5. Dispense 3.4 μL the antibody buffer to wells of an empty assay plate. Seal the plate and centrifuge plate 30 sec×1000 rpm. • 6. At the end of the 4° C. lysis, centrifuge the lysate plates 3 mins×1500 rpm. • 7. Use the Bravo to transfer 13.6 μL of lysate from cell culture plate to assay plate.
# (§4) Then incubate assay plate for 2 hrs at room temperature. […] At the end of incubation, read plate on the Envision after centrifuging plate 30 sec× • 1000 rpm.
# pERK in PSN1 cells = test: as above; conditions: Homo sapiens, PSN1, 3 h, read-out: Inhibition (HTRF IC50) of KRas-mediated Phosphorylation of ERK, PSN1
# KRas G12V = KRas G12V (Homo sapiens, UniProt P01116, G12V); test: biochemical;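 note: KRas binding measured by TR-FRET displacement at room temperature, IC50 fitted from percent of control values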
# Procedure: as §2
# pERK in HCT116 cells = test: Inhibition of KRas phosphorylation of ERK (Cisbio HTRF pERK assay); conditions: Homo sapiens, HCT-116, read-out: Inhibition (HTRF IC50) of KRas-mediated Phosphorylation of ERK, HCT116
# pERK in H460 cells = test: as above; conditions: Homo sapiens, NCI-H460, read-out: Inhibition (HTRF IC50) of KRas-mediated Phosphorylation of ERK, H460
# KRas G12R = KRas G12R (Homo sapiens, UniProt P01116, G12R); test: biochemical;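 note: TR-FRET displacement assay of compound binding to KRas, read after one hour at room temperature, potency from a four-parameter fit of percent-of-control values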
# Procedure: as §2
# pERK in MKN1 cells = test: Inhibition of KRas phosphorylation of ERK (Cisbio HTRF pERK assay); conditions: Homo sapiens, MKN-1, 3 h, read-out: Inhibition (HTRF IC50) of KRas-mediated Phosphorylation of ERK, MKN1
# Procedure: as §3, §4
# pERK in ASPC1 cells = test: as above; conditions: Homo sapiens, ASPC1, read-out: Inhibition (HTRF IC50) of KRas-mediated Phosphorylation of ERK, AsPC-1
# pERK in H727 cells = test: as above; conditions: Homo sapiens, NCI-H727, read-out: Inhibition (HTRF IC50) of KRas-mediated Phosphorylation of ERK, H727
# [1] = system: phospho-ERK in NCI-H727 (G12V) cells; test: Inhibition of KRas-mediated phosphorylation of ERK (in-cell western); assay type: cell-based; conditions: Homo sapiens, NCI-H727, 3 h, 3 hours compound, phospho-ERK normalized to GAPDH
# Summary of the method: (§1)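 After a 3-hour incubation with diluted compound in 0.5% DMSO, cells are fixed, permeabilized and stained overnight at 4° C for phosphorylated ERK and GAPDH.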
# [2] = system: phospho-ERK in NCI-H460 (Q61H) cells; test: as above; assay type: cell-based; conditions: Homo sapiens, NCI-H460, 3 h, 3 hours compound, phospho-ERK normalized to GAPDH
# Summary of the method: as §1
# [3] = system: phospho-ERK in AsPC-1 (G12D) cells; test: as above; assay type: cell-based; conditions: Homo sapiens, ASPC1, 3 h, 3 hours compound, phospho-ERK normalized to GAPDH
# Summary of the method: as §1
# Sequence of KRas G12D (P01116 1-169 isoform P01116-2 G12D): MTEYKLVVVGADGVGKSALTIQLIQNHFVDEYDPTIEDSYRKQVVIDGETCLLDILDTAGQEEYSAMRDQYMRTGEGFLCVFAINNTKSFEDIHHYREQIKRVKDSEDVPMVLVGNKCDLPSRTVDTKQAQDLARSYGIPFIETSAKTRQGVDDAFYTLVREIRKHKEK
# Sequence of KRas G12V (P01116 1-169 isoform P01116-2 G12V): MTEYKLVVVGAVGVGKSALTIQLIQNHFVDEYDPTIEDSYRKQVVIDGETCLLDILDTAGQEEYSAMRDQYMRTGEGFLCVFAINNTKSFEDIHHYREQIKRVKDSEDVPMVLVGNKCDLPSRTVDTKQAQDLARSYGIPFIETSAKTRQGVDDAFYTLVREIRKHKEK
# Sequence of KRas G12R (P01116 1-169 isoform P01116-2 G12R): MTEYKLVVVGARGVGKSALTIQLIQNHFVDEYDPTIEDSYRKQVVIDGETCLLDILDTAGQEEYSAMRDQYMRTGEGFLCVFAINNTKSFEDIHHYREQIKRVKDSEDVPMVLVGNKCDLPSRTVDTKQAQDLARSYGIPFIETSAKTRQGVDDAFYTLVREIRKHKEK
SMILES,pIC50 (pERK in A549 cells),pIC50 (KRas G12D),pIC50 (pERK in H358 cells),pIC50 (pERK in PSN1 cells),pIC50 (KRas G12V),pIC50 (pERK in HCT116 cells),pIC50 (pERK in H460 cells),pIC50 (KRas G12R),pIC50 (pERK in MKN1 cells),pIC50 (pERK in ASPC1 cells),pIC50 (pERK in H727 cells),IC50 [1],IC50 [2],IC50 [3]
"CCc1c(F)ccc2cc(O)cc(-c3ncc4c(N5C[C@@H](CO)C[C@](C)(O)C5)nc(OC[C@@]56CCCN5C[C@H](F)C6)nc4c3F)c12 (mixture of isomers) [Example 327, (3RS,5RS)-1-(7-(8-ethyl-7-fluoro-3-hydroxynaphthalen-1-yl)-8-fluoro-2-(((2R,7aS)-2-fluorotetrahydro-1H-pyrrolizin-7a(5H)-yl)methoxy)pyrido[4,3-d]pyrimidin-4-yl)-5-(hydroxymethyl)-3-methylpiperidin-3-ol]",6.62,≥ 8.70,8.00,5.17,≥ 8.70,6.42,6.69,≥ 8.70,7.85,7.64,7.01,–,–,–
"CCc1c(F)ccc2cc(O)cc(-c3ncc4c(N5CCC[C@]6(C5)C[C@H](O)C6)nc(OC[C@@]56CCCN5C[C@H](F)C6)nc4c3F)c12 (single isomer, unassigned) [Example 323]",7.72,–,8.70,6.22,–,7.66,7.96,–,8.70,8.10,8.10,–,–,–
"CCc1c(F)ccc2cc(O)cc(-c3ncc4c(N5CCC[C@]6(C5)C[C@@H](O)C6)nc(OC[C@@]56CCCN5C[C@H](F)C6)nc4c3F)c12 (single isomer, unassigned) [Example 324]",7.02,–,7.85,5.84,–,7.21,7.00,–,8.52,7.46,7.66,–,–,–
"CCc1c(F)ccc2cc(O)cc(-c3ncc4c(N5CCC[C@]6(C5)NC(=O)NC6=O)nc(OC[C@@]56CCCN5C[C@H](F)C6)nc4c3F)c12 [Example 307, (R)-7-(7-(8-ethyl-7-fluoro-3-hydroxynaphthalen-1-yl)-8-fluoro-2-(((2R,7aS)-2-fluorohexahydro-1H-pyrrolizin-7a-yl)methoxy)pyrido[4,3-d]pyrimidin-4-yl)-1,3,7-triazaspiro[4.5]decane-2,4-dione]",–,≥ 8.70,7.82,6.97,≥ 8.70,7.48,7.92,≥ 8.70,8.30,7.24,7.07,215 nM,11 nM,117 nM
"CCc1c(F)ccc2cc(O)cc(-c3ncc4c(N5CCCOCC5)nc(OC[C@@]56CCCN5C[C@H](F)C6)nc4c3F)c12 [Example 315, 5-ethyl-6-fluoro-4-(8-fluoro-2-(((2R,7aS)-2-fluorohexahydro-1H-pyrrolizin-7a-yl)methoxy)-4-(1,4-oxazepan-4-yl)pyrido[4,3-d]pyrimidin-7-yl)naphthalen-2-ol]",7.55,–,8.30,5.71,–,7.62,7.47,–,8.30,7.70,7.70,–,–,–
"CCc1c(F)ccc2cc(O)cc(-c3ncc4c(N5CCC[C@@](C)(O)C5)nc(OCC5(CN(C)C)CC5)nc4c3F)c12 [Example 316, (R)-1-(2-((1-((dimethylamino)methyl)cyclopropyl)methoxy)-7-(8-ethyl-7-fluoro-3-hydroxynaphthalen-1-yl)-8-fluoropyrido[4,3-d]pyrimidin-4-yl)-3-methylpiperidin-3-ol]",7.29,–,8.05,5.69,–,7.52,7.16,–,9.00,8.10,7.49,–,–,–
"CCc1c(F)ccc2cc(O)cc(-c3ncc4c(N5CCC[C@@](C)(O)C5)nc(OCC5(CN6CCCCC6)CC5)nc4c3F)c12 [Example 331, (R)-1-(7-(8-ethyl-7-fluoro-3-hydroxynaphthalen-1-yl)-8-fluoro-2-((1-(piperidin-1-ylmethyl)cyclopropyl)methoxy)pyrido[4,3-d]pyrimidin-4-yl)-3-methylpiperidin-3-ol]",8.22,≥ 8.70,8.52,–,≥ 8.70,7.57,7.80,≥ 8.70,9.00,8.40,7.46,–,–,–
"CCc1c(F)ccc2cc(O)cc(-c3ncc4c(N5CCC[C@@](C)(O)C5)nc(OCC5(CN6CCOCC6)CC5)nc4c3F)c12 [Example 332, (R)-1-(7-(8-ethyl-7-fluoro-3-hydroxynaphthalen-1-yl)-8-fluoro-2-((1-(morpholinomethyl)cyclopropyl)methoxy)pyrido[4,3-d]pyrimidin-4-yl)-3-methylpiperidin-3-ol]",7.89,≥ 8.70,8.52,6.15,≥ 8.70,7.32,7.66,8.52,8.70,8.22,7.51,–,–,–
"CCc1c(F)ccc2cc(O)cc(-c3ncc4c(N5CCC[C@@](C)(O)C5)nc(OCC5(CN6CCN(C)CC6)CC5)nc4c3F)c12 [Example 336, (R)-1-(7-(8-ethyl-7-fluoro-3-hydroxynaphthalen-1-yl)-8-fluoro-2-((1-((4-methylpiperazin-1-yl)methyl)cyclopropyl)methoxy)pyrido[4,3-d]pyrimidin-4-yl)-3-methylpiperidin-3-ol]",7.12,≥ 8.70,7.23,5.39,≥ 8.70,6.68,6.79,≥ 8.70,8.40,7.49,6.89,–,–,–
"CCc1c(F)ccc2cc(O)cc(-c3ncc4c(N5CCCn6nc(C(=O)NC)cc6C5)nc(OC[C@@]56CCCN5C[C@H](F)C6)nc4c3F)c12 [Example 339, 5-(7-(8-ethyl-7-fluoro-3-hydroxynaphthalen-1-yl)-8-fluoro-2-(((2R,7aS)-2-fluorotetrahydro-1H-pyrrolizin-7a(5H)-yl)methoxy)pyrido[4,3-d]pyrimidin-4-yl)-N-methyl-5,6,7,8-tetrahydro-4H-pyrazolo[1,5-a][1,4]diazepine-2-carboxamide]",6.25,≥ 8.70,7.02,≤ 5.00,≥ 8.70,6.08,6.00,≥ 8.70,7.92,7.32,7.14,–,–,–
"C[C@@]1(O)CCCN(c2nc(OC[C@@]34CCCN3C[C@H](F)C4)nc3c(F)c(-c4cc(O)cc5ccc(F)c(F)c45)ncc23)C1 [Example 514, (R)-1-(7-(7,8-difluoro-3-hydroxynaphthalen-1-yl)-8-fluoro-2-(((2R,7aS)-2-fluorohexahydro-1H-pyrrolizin-7a-yl)methoxy)pyrido[4,3-d]pyrimidin-4-yl)-3-methylpiperidin-3-ol]",7.70,–,7.96,6.07,–,7.52,7.22,–,8.30,7.82,7.72,–,–,–
"O=S1(=O)NC[C@]2(CCCN(c3nc(OC[C@@]45CCCN4C[C@H](F)C5)nc4c(F)c(-c5cc(O)cc6ccc(F)c(Cl)c56)ncc34)C2)N1 [Example 515, (R)-7-(7-(8-chloro-7-fluoro-3-hydroxynaphthalen-1-yl)-8-fluoro-2-(((2R,7aS)-2-fluorotetrahydro-1H-pyrrolizin-7a(SB)-yl)methoxy)pyrido[4,3-d]pyrimidin-4-yl)-2-thia-1,3,7-triazaspiro[4.5]decane2,2-dioxide]",7.44,≥ 8.70,8.15,–,≥ 8.70,7.62,7.72,≥ 8.70,–,7.46,7.72,–,–,–
